US6527981B1, “Azole/amine oxide preservatives” (Lonza Inc., priority 1999, dated 2003)
Converted amounts (≈) assume the structure as drawn. Like-named read-outs stand apart in the source and are kept apart here.

Columns and labels:
[1] = tested on: T. versicolor (white rot fungi); assay: agar dilution plate method, wood rot fungi (MIC, IC50, percent retardation); type: cell-based; settings: for MIC: Trametes versicolor; for T. versicolor IC50: Table2D curve fitting
[2] = tested on: G. trabeum (brown rot fungi); assay: as above; type: cell-based; settings: for MIC: Gloeophyllum trabeum; for G. trabeum IC50: Table2D curve fitting
[3] = tested on: P. placenta (brown rot fungi); assay: as above; type: cell-based; settings: for P. placenta IC50: Table2D curve fitting
[4] = tested on: C. globosum (soft rot decay fungi); assay: as above; type: cell-based; settings: for MIC: Chaetomium globosum
[5] = cited from earlier work; for Solubility in Water^b: Material Safety Data Sheet; for Solubility in water^a: The Pesticide Manual, 11th Edition
[6] = azole alone, read-out: T. versicolor MIC
[7] = azole alone, read-out: G. trabeum MIC
[8] = azole alone, read-out: P. placenta MIC
[9] = azole alone, read-out: C. globosum MIC
[10] = azole alone, Table2D curve fitting

Row | Compound | MIC [1, 6] [µg/mL] | T. versicolor IC50 ([1]; azole alone) [ppm] | MIC [2, 7] [µg/mL] | G. trabeum IC50 ([2]; azole alone) [ppm] | P. placenta IC50 ([3]; azole alone) [ppm] | MIC [3, 8] [µg/mL] | MIC [4, 9] [µg/mL] | C. globosum IC50 [4, 10] [ppm] | Solubility in Water^b ([5]; 20° C.) [ppm at 20 °C] | Solubility in Water^b ([5]; 25° C.) [ppm at 25 °C] | Solubility in water^a ([5]; 25° C.) [ppm/25 °C] | further results
1 | CC(C)(C)C(O)(CCc1ccc(Cl)cc1)Cn1cncn1 (stereo not shown) [Tebuconazole, tebuconazole] | 25 (≈ 81.2 µM) | 2.3 | 10 (≈ 32.5 µM) | <0.1 | 1.7 | 50 (≈ 162 µM) | 50 to 500 (≈ 162 to 1620 µM) | 34.5 | 32 |  |  | Qb, concentration of azole alone required to yield 100% retardation, T. versicolor ([1]; azole alone): 25 ppm; Qb, concentration of azole alone required to yield 100% retardation, G. trabeum ([2]; azole alone): 10 ppm; Qb, concentration of azole alone required to yield 100% retardation, P. placenta ([3]; azole alone): 50 ppm
2 | N#CC(CCc1ccc(Cl)cc1)(Cn1cncn1)c1ccccc1 (stereo not shown) [Fenbuconazole, fenbuconazole] | 25 (≈ 74.2 µM) | 1.1 | 50 (≈ 148 µM) | 0.3 | 3.9 | 25 (≈ 74.2 µM) | 50 (≈ 148 µM) | 10.7 |  | 4 | 0.2 | 
3 | CCCCC(C#N)(Cn1cncn1)c1ccc(Cl)cc1 (stereo not shown) [Myclobutanil, myclobutanil] | 50 (≈ 173 µM) | 6 | > 50 | 4.3 | 13 | 50 (≈ 173 µM) | > 50 |  |  | 142 | 142 | 
4 | CC(C)(C)C(=O)C(Oc1ccc(Cl)cc1)n1cncn1 (stereo not shown) [Triadimefon, triadimefon] |  |  |  |  |  |  |  |  | 64 |  |  | Solubility in water^a ([5]; 20° C.): 64 ppm/20 °C
5 | branched alkyl (C10-C14) dimethylamine oxide [Branched alkyl (C10-C14) DMAO] |  |  |  |  |  |  |  |  |  |  |  | IC50 T. versicolor [1]: 84 ppm; MIC (ppm of amine oxides) T. versicolor [1]: 500 ppm; MIC T. versicolor [1]: 500 ppm; Qa, concentration of amine oxide alone required to yield 100% retardation, T. versicolor [1]: 500 ppm; IC50 G. trabeum [2]: 44 ppm; MIC (ppm of amine oxides) G. trabeum [2]: 250 ppm; MIC G. trabeum [2]: 250 ppm; Qa, concentration of amine oxide alone required to yield 100% retardation, G. trabeum [2]: 250 ppm; IC50 P. placenta [3]: 89 ppm; MIC (ppm of amine oxides) P. placenta [3]: 500 ppm; MIC P. placenta [3]: 500 ppm; Qa, concentration of amine oxide alone required to yield 100% retardation, P. placenta [3]: 500 ppm; MIC C. globosum ([4]; Table 8, ppm of amine oxide or didecyldimethyl ammonium chloride): >1000 ppm; MIC (ppm of amine oxides) C. globosum ([4]; amine oxide alone, 100% growth retardation): >1000 ppm; IC50 C. globosum ([4]; ppm of amine oxide or didecyldimethyl ammonium chloride, Table2D curve fitting): 153 ppm
6 | CCCCCCCCCCCCCCCC[N+](C)(C)[O-] [Hexadecyl-DMAO, hexadecyl dimethylamine oxide] |  |  |  |  |  |  |  |  |  |  |  | MIC ([1]; amine oxide alone, 100% growth retardation, read-out: MIC (ppm of amine oxides) T. versicolor): > 1000 µg/mL; Qa, concentration of amine oxide alone required to yield 100% retardation, T. versicolor ([1]; amine oxide alone): 1000 ppm; MIC ([2]; amine oxide alone, 100% growth retardation, read-out: MIC (ppm of amine oxides) G. trabeum): > 1000 µg/mL; Qa, concentration of amine oxide alone required to yield 100% retardation, G. trabeum ([2]; amine oxide alone): 1000 ppm; Qa, concentration of amine oxide alone required to yield 100% retardation, P. placenta ([3]; amine oxide alone): 1000 ppm; MIC ([3]; amine oxide alone, 100% growth retardation, read-out: MIC (ppm of amine oxides) P. placenta): > 1000 µg/mL; MIC ([4]; amine oxide alone, 100% growth retardation, read-out: MIC (ppm of amine oxides) C. globosum): > 1000 µg/mL
